Measurements published in PubChem BioAssay (NCI).
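Protocol summary: plate cells (96-well), add compound at 5 concentrations, incubate 48 h, interpolate endpoints linearly. TGI: total growth inhibition.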

What was measured:
Test in all cases: NCI tumour cell line growth inhibition, 48 h
786-0 renal = test system: 786-0 renal
A498 renal = test system: A498 renal
ACHN renal = test system: ACHN renal
COLO 205 colon = test system: COLO 205 colon
DU-145 prostate = test system: DU-145 prostate
EKVX NSCLC = test system: EKVX NSCLC
HOP-62 NSCLC = test system: HOP-62 NSCLC
HT29 colon = test system: HT29 colon
MDA-MB-231 breast = test system: MDA-MB-231 breast
MDA-MB-435 = test system: MDA-MB-435
NCI-H460 lung = test system: NCI-H460 lung
NCI-H522 lung = test system: NCI-H522 lung
SF-268 CNS = test system: SF-268 CNS
SF-295 CNS = test system: SF-295 CNS
SK-OV-3 ovarian = test system: SK-OV-3 ovarian
T-47D breast = test system: T-47D breast
TK-10 renal = test system: TK-10 renal
U251 CNS = test system: U251 CNS
UO-31 renal = test system: UO-31 renal

Row | Structure (SMILES) | TGI (786-0 renal) [µM] | TGI (A498 renal) [µM] | TGI (ACHN renal) [µM] | TGI (COLO 205 colon) [µM] | TGI (DU-145 prostate) [µM] | TGI (EKVX NSCLC) [µM] | TGI (HOP-62 NSCLC) [µM] | TGI (HT29 colon) [µM] | TGI (MDA-MB-231 breast) [µM] | TGI (MDA-MB-435) [µM] | TGI (NCI-H460 lung) [µM] | TGI (NCI-H522 lung) [µM] | TGI (SF-268 CNS) [µM] | TGI (SF-295 CNS) [µM] | TGI (SK-OV-3 ovarian) [µM] | TGI (T-47D breast) [µM] | TGI (TK-10 renal) [µM] | TGI (U251 CNS) [µM] | TGI (UO-31 renal) [µM]
1 | Cc1ccc2c(c1)C(=O)/C(=N/Nc1ccc(Cl)cc1)CCO2 | > 100 | > 100 | > 100 | > 100 | > 100 | > 100 | > 100 | > 100 | > 100 | > 100 | > 100 | > 100 | > 100 | > 100 | > 100 | > 100 | > 100 | > 100 | > 100
2 | COc1ccc(OC)c2sc(N3C(=O)/C(=C/c4ccc(Cl)cc4)N=C3c3ccccc3)nc12 | > 100 | > 100 | > 100 | > 100 | > 100 | > 100 | > 100 | > 100 | > 100 | > 100 | > 100 | > 100 | > 100 | > 100 | > 100 | 78.5 | > 100 | > 100 | > 100
3 | COCC(N=CN1CCCc2ccccc2[C@@H]1CCCCl)C(C)(C)C (stereo partly drawn) | 28.1 | 33.5 | 70 | 10.3 | > 100 | 88.9 | 52.9 | 69.7 | 9.48 | 26.4 | 97.2 | 21.1 | > 100 | 35.1 | 70.1 | 84.1 | 28.8 | 34.8 | 33.2
4 | CCOC(=O)C(SCCO)C(C(=O)OCC)n1cnc2c(N)ncnc21 (stereo not drawn) | 12.2 | 19.2 | 22.4 | 20 | > 100 | 38.1 | 45.4 | 25.4 | 32.7 | 30.2 | 18 | 19.1 | 35.9 | > 100 | > 100 | 30.8 | 28.3 | 20.4 | 55.1
5 | Cc1oc2c(c1C)S(=O)(=O)C(C#N)=C(c1ccccc1)N2 | > 100 | > 100 | > 100 | > 100 | > 100 | > 100 | > 100 | > 100 | > 100 | > 100 | > 100 | > 100 | > 100 | > 100 | > 100 | > 100 | > 100 | > 100 | > 100
6 | OC1(CCc2ccccc2)COC(C(F)(F)F)(C(F)(F)F)C1 (stereo not drawn) | > 100 | > 100 | > 100 | > 100 | > 100 | > 100 | > 100 | > 100 | > 100 | > 100 | > 100 | > 100 | > 100 | > 100 | > 100 | > 100 | > 100 | > 100 | > 100
7 | CC(C)(C)O/C=C1/C(=O)OC2C[C@@H](O[Si](C)(C)C(C)(C)C)CC12 (stereo partly drawn) | > 100 | > 100 | > 100 | > 100 | > 100 | > 100 | > 100 | > 100 | > 100 | > 100 | > 100 | 87.4 | > 100 | > 100 | > 100 | > 100 | > 100 | > 100 | > 100
